From patent US11707440B2 (priority 2017, dated 2023)

How the values were obtained:
[1] = system: subjects with MDD at imminent risk for suicide; assay: SIBAT clinical global judgment of suicide risk, […]2001; format: in vivo, human; details: Baseline(DB), predose Day 1; ITT analysis set
Text: The clinical global judgment of suicide risk (Module 8) summarizes clinician overall judgment of suicide risk as derived from information gathered from the full SIBAT tool. It operates like numerous other CGI-severity scales that have been used in other psychiatric studies. Change in the clinical global judgment of suicide risk is designed to directly identify clinical meaningful changes in suicidal ideation and to permit classification of suicide risk.
The analysis of the change in SIBAT score was based on an ANCOVA model on ranks of change in SIBAT with treatment, antidepressant therapy, and analysis center as factors, and baseline value (unranked) as a covariate. There was a significant difference (two-sided […]) between the two treatment groups when comparing the mean rank of change from baseline at Day 1: 4-hours postdose in favor of esketamine 84 mg See, Table 58. See, FIG. 39. […] This difference was not evident at the Day 25 DB endpoint. See, FIG. 40, which is based on LOCF data and analyzed using Cochran-Mantel-Haenszel test controlling for analysis center and antidepressant therapy.

[2] = system: glutamate NMDA receptor; details: in vitro; cited from earlier work
[3] = system: adult subjects with TRD; format: in vivo, human
Procedure: Blood pressure and pulse/heart rate measurements were assessed supine with a completely automated device. Manual techniques were used only if an automated device is not available. Blood pressure and pulse/heart rate measurements were preceded by at least 5 minutes of rest in a quiet setting without distractions (e.g., television, cell phones).
Transient blood pressure increases peaked for the esketamine group at approximately 40 minutes post dose and returned to normal range at 90 minutes. […] The maximum mean increase (across all dosing days) in diastolic BP were 8.1 in the esketamine group and 4.5 in the active comparator group. FIGS. 7 and 8 present the means for measured blood pressure over time by treatment group in the double-blind phase.

[4] = system: subjects with TRD; details: human, in vivo, other: intranasal
Procedure: FIGS. 53 and 54 present means for blood pressure over time by treatment group in the maintenance phase.
Transient blood pressure increases peaked for the esketamine group at approximately 40 minutes post dose and returned closer to predose levels by 1.5 hours post dose.

[5] = system: elderly subjects with TRD; format: in vivo, human; details: each dosing day
Text: The Modified Observer's Assessment of Alertness/Sedation (MOAA/S) was used to measure treatment-emergent sedation with correlation to levels of sedation defined by the American Society of Anesthesiologists (ASA) continuum. The MOAA/S scores range from 0 (No response to painful stimulus; corresponds to ASA continuum for general anesthesia) to 5 (Readily responds to name spoken in normal tone [awake]; corresponds to ASA continuum for minimal sedation). The proportion of subjects with sedation was <4% for the esketamine group for each dosing day.

[6] = system: female Sprague-Dawley rats, PCG/RSC of the brain; assay: Single dose neurotoxicity study, intranasal instillation; details: single dose, 72 mg
Procedure: Esketamine HCl was instilled intranasally at doses of 0 (vehicle), 36, 54 or 72 mg (expressed as esketamine base) to female rats on a single day. The dose levels were obtained by 2, 3 or 4 subsequent intranasal instillations, respectively, into both nostrils at a volume of 50 μL per nostril. At each instillation, the second nostril was dosed immediately after the first nostril. The interval between subsequent instillations into both nostrils was 5 minutes.
The vehicle control group received 4 subsequent intranasal instillations of the vehicle into both nostrils (50 μL per nostril) with 5-minute intervals.
The injection volume was 5 mL/kg.
The vehicle- and the 36 and 54 mg-dosed groups consisted of 24 animals per group, while the 72 mg-dosed and positive control groups involved 30 animals per group. Four satellite animals were added to the esketamine HCl-dosed groups of main study animals for toxicokinetic (TK) purposes. In these animals the plasma exposure to esketamine was measured on the day of dosing at various time points up to and including 24 hours after the first instillation.
Prior to the perfusion, rats were anesthetized with isoflurane. After injection of 0.1 ml heparin, the blood of the rat was flushed out with a physiological saline solution by intraarterial insertion of a needle in the abdominal aorta. Thereafter the rat was perfused with glutaraldehyde 3% in potassium phosphate 0.09M and 1.4% sucrose. Due to logistic constraints at maximum 30 animals could undergo the whole-body perfusion procedure on a given day. Therefore, a staggered start of treatment was applied to all 5 groups of main study animals. Consequently, subgroups of 4 main study animals of the vehicle- and 36 and 54 mg-dosed groups, and 5 main study animals of the 72 mg-dosed and positive control groups, were dosed on 6 consecutive days, respectively.
The vehicle control, positive control, and esketamine HCl-dosed animals were sacrificed at either 48 hours (i.e., the first 12 or 15 rats per group) or 96 hours after the dose administration time (i.e., the last 12 or 15 rats per group). The brain tissue of the vehicle control-, positive control- and esketamine HCl-treated rats were processed at the same time and handled in the same way in batches of 4 or 5 animals per group.
Furthermore, clinical observations were recorded for the esketamine HCl-dosed rats on the day of dosing at 0 till 5 minutes, 15 and 30 minutes, and at 1, 2, 4, 6 hours post-dose, at the end of the working day and at 24 hours after the last instillation in the single dose study and on the first day of dosing, after one week and towards the end of the dosing period in the repeated dose study. Body weight and body weight gain were measured daily. Food consumption was measured weekly in the repeated dose study.
On the day of terminal kill, a complete physical examination was performed on the rats in fasted condition and body weight was recorded. The surviving animals were anaesthetized by inhalation of an isoflurane (IsoFlo® Zoetis, Belgium)/oxygen mixture and killed by exsanguination via the carotid artery. […] All terminally killed rats or those killed pre-terminally were perfused with 4% paraformaldehyde in the single dose study and with glutaraldehyde 3% in potassium phosphate buffer 0.09 M with 1.4% sucrose in the repeated dose study.
Brain tissue was sampled and processed routinely. The trimmed and embedded tissue was sectioned and stained with hematoxylin-eosin (HE). Histoprocessing and staining were carried out in three batches of 4 animals per group (each batch thus containing 4 animals from vehicle control-, positive control- and the three esketamine HCl-treated groups). In the single dose study duplicate brain sections were stained with Fluoro-Jade (FJ).
All tissues showing gross abnormalities were examined macroscopically.

[7] = system: subjects with TRD; design: species or system human; details: in vivo
Text: Subjects with and without hypertension experienced similar magnitude of mean increases of SBP and DBP.
The maximum mean increases (across all dosing days within the respective phase) in diastolic BP were 5.6 and 5.2 in the IND and OP/MA phases, respectively.

[8] = human, in vivo, other: intranasal

Compound	SIBAT Clinical Global Judgment of Suicide Risk, Median (Range) [1]	Greater affinity for the glutamate NMDA receptor than R-ketamine [2]	Maximum mean increase in diastolic BP (across all dosing days) ([3]; double-blind phase)	Time of peak of transient blood pressure increases [3, 8]	Time of return of blood pressure to normal range [3, 8]	Time of peak of transient blood pressure increases [4]	Time of return of blood pressure closer to predose levels [4]	Proportion of subjects with sedation (post dose MOAA/S score of ≤3) [5]	AUC-based safety margin compared with the maximum 84 mg clinical dose [6]	Cmax-based safety margin compared with the maximum 84 mg clinical dose [6]	Subjects who discontinued intranasal esketamine due to increased blood pressure [7]
CN[C@]1(c2ccccc2Cl)CCCCC1=O [Esketamine 84 mg]	6.0 (5; 6)										
CN[C@]1(c2ccccc2Cl)CCCCC1=O [esketamine, (S)-2-(2-chlorophenyl)-2-(methylamino)cyclohexanone]		3 to 4 fold	8.1	approximately 40 minutes post dose	90 min	approximately 40 minutes post dose	≤ 1.5 hours post dose	< 4%	~86 fold	approximately 60 fold	Six
